# How the values were obtained:
# [1] = tested on: phospho-ERK1/2 in A375 cells; assay: cells; conditions: Homo sapiens, A-375, 3 h, read-out: A375 ICW IC50
# Procedure: Human melanoma A375 cells were seeded at 50,000 cells per well in 100 μl growth medium in Costar 96 well black clear bottom plates and placed at 37° C./5% CO2 over night. Test compounds were diluted in DMSO to generate a concentration curve. A 5 mM stock was used for the highest concentration at 500 times; to yield a final concentration of 10 μM with 3-fold dilutions down to 0.0001 μM. 1 μl of diluted compound was added to 500 μl cell culture media and mixed well. Media was removed from cells and 200 μl of media containing compound was added. Cells were treated for 3 hrs with compound at 37° C., 5% CO2.
# After the compound incubation, cells were washed once with PBS (Mg^++,Ca^++) and fixed in 4% paraformaldehyde/PBS for 1 hr at room temperature. Following fixation, cells were washed three times with PBS/0.1% TritonX-100(PBST), and then blocked with 5% skimmed milk/PBST, for 1-2 hr. 50 μL per well primary antibody was added (rabbit-anti-phospho-ERK1/2) at 1:500 in 5% skimmed milk/PBST and incubated overnight at 4° C. Cells were washed four times with 100 μl DELFIA wash buffer and 50 μL per well secondary antibody was added (DELFIA-EU-N1-labeled anti-rabbit antibody) at 1:3000 in DELFIA assay buffer and incubated for 2 hr at room temperature in the dark (covered). Cells were washed 4× with 100 μl DELFIA wash buffer. 50 μL per well Wallac-DELFIA enhancement solution was added. […]
# [2] = target: recombinant human activated BRAF (V599E) kinase (Homo sapiens (Human), UniProt P15056, V600E); assay: biochemical
# A375 cells = assay: cells; conditions: Homo sapiens, A-375, 72 h, read-out: A375 XTT IC50 uM
# Procedure: The cell viability assay in A375 cells (A375 ICW IC50 in Table 2) is set up in a 96-well plate format using XTT. XTT is a yellow tetrazolium salt that is cleaved to an orange formazan dye by the mitochondria of metabolically active cells. The procedure allows for rapid determination in a microtitre plate, to give reproducible and sensitive results.
# A375 cells are grown in DMEM media containing 10% FBS and 1 mM sodium pyruvate. Cells are trypsinized and seeded at 1000 cells/well. After allowing the cells to adhere overnight, compound is added to the wells at the following final concentrations: 10, 3, 1, 0.3, 0.1, 0.03, 0.01, 0.001, and 0.0001 μM. The assay is set up in triplicates for each concentration. DMSO concentrations are kept at 0.5% /well. Three days after compound addition, the XTT assay is performed. Wells are washed once with PBS. 100 μL of DMEM media without phenol red or FBS is added to each well. […] 50 μL of the working solution of XTT is added to each well. […] The absorbance from wells with media and XTT alone, but without cells is considered the blank and subtracted from readings from all wells.
# Percentage viability is calculated considering the blank subtracted value from wells treated with DMSO alone as 100% viable. IC50 values are calculated using Graphpad Prism, using non-linear regression curve fit for sigmoidal dose response (variable slope).
# [3] = target: activated MAP kinase 2/ERK2 (Homo sapiens (Human), UniProt P28482); assay: biochemical
# Sequence of activated MAP kinase 2/ERK2 (P28482 whole entry, looked up): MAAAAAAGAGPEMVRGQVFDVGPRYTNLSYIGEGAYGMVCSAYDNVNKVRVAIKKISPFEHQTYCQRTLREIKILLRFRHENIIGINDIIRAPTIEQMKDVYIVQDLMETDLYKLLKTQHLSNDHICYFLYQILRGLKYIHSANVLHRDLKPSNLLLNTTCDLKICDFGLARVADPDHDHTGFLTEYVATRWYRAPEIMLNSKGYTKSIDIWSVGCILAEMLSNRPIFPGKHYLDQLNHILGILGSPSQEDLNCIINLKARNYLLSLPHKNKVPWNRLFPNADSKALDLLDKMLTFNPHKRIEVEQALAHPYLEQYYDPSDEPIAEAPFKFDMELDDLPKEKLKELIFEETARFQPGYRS
# Sequence of recombinant human activated BRAF (V599E) kinase (P15056 417-766 V600E limits assumed): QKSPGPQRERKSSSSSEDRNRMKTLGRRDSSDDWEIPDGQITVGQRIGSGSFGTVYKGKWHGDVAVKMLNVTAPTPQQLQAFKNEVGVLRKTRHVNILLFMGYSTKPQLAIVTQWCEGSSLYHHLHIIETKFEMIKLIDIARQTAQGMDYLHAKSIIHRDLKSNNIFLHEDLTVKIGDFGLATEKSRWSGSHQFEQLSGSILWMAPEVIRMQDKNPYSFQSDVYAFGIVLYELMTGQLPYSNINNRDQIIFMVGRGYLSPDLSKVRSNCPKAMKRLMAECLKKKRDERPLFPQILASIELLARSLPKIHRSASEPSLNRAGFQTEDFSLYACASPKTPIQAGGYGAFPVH
structure (smiles),measurement,setting,value
"Cc1nc2cnc3cc(F)c(-c4ccc(Oc5ncccn5)cc4Cl)cc3c2n1[C@H]1CCN(C(=O)CO)C[C@@H]1F [Example 1A, 1-((3S,4S)-4-(8-(2-chloro-4-(pyrimidin-2-yloxy)phenyl)-7-fluoro-2-methyl-1H-imidazo[4,5-c]quinolin-1-yl)-3-fluoropiperidin-1-yl)-2-hydroxyethanone]",IC50,[1],3.9 nM
same,inhibition at 10 µM,[2],0%
same,IC50,A375 cells,0.003 µM
same,inhibition at 10 µM,[3],55%
